In paper PMC12521527, “In vivo self-assembled nano-PROTAC for the dual degradation of AR and HSP90 to overcome castration-resistant prostate cancer resistance” (Signal Transduction and Targeted Therapy, 2025):
Numbered stars: 1 amine (or outer) side, 2 acyl side, 3 side chain; on linkers, the order of the positions; unused ones are H or OH. Square brackets hold non-standard residues; d marks the D form. Peptide text beside a SMILES is read from it. * marks the point of attachment. X2 = CC1(C)C(=O)N(c2ccc(C#N)c(C(F)(F)F)c2)C(=S)N1c1ccc(C(=O)*)c(F)c1; X1 = O=C1CCC(N2C(=O)c3cccc(N(CC(=O)[*:2])[*:1])c3C2=O)C(=O)N1; EuK = O=C(O)CC[C@H](NC(=O)N[C@@H](CCCCN*)C(=O)O)C(=O)O; 2Nal = N[C@@H](Cc1ccc2ccccc2c1)C(=O)O

Target: T1, AR protein (Homo sapiens, UniProt P10275)
T1 sequence (P10275 1-920): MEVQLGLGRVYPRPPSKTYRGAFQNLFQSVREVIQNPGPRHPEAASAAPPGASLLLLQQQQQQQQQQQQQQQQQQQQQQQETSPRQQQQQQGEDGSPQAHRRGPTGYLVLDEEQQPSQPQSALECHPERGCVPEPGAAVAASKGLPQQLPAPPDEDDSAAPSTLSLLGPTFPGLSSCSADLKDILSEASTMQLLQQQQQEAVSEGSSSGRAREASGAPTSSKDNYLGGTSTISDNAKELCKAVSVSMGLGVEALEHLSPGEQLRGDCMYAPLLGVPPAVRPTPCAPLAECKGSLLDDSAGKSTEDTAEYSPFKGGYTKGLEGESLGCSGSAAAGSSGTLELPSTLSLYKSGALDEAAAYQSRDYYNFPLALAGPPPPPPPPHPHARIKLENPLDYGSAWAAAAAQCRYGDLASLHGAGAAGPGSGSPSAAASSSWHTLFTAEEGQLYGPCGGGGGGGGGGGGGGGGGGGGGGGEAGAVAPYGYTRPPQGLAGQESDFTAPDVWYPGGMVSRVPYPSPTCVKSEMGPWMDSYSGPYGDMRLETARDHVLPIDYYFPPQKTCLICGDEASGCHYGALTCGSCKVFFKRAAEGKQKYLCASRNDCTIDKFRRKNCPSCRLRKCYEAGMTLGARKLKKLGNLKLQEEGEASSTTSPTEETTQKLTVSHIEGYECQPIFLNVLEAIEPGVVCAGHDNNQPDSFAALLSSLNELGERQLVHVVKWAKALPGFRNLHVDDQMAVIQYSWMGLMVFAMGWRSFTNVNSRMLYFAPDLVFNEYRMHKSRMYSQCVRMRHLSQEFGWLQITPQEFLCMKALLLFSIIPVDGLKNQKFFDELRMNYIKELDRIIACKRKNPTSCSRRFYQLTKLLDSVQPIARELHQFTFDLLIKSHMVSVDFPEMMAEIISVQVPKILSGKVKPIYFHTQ
Assay: MST binding affinity, Psa-AR and AR protein
Conditions: RED-NHS-labeled AR 400 nM, PBS-T, 22 °C, n = 3, read-out: Kd, binding affinity between Psa-AR and AR
Source text: Fig. 3 Polynary nanocomposite (AR: Psa-AR: CRBN) formation. a Dose‒response curve for the binding interaction between Psa-AR and the AR protein; n = 3 per group. b Dose‒response curve for the binding interaction between Psa-AR and the CRBN protein; n = 3 per group. c Dose‒response curve for the binding interaction between the binary complex (Psa-AR: AR) and CRBN, n = 3 per group. d In vitro Psa-AR self-assembly, protein binding and degradation. e Representative 22Rv1 cell CLSM images of FITC-labeled Psa-AR assembly (green channel) interacting with HSP90 (red channel) and its colocalization analysis (1–1’). […] Scale bar: 10 μm.
MST (NanoTemper Technologies GmbH, Munich, Germany) was utilized to evaluate the binding affinity between Psa-AR and RED-NHS-labeled PSMA, AR, or CRBN proteins. The PSMA, AR, and CRBN proteins were labeled with the Protein Labeling Kit RED-NHS 2nd Generation (Amine Reactive). RED-PSMA, RED-AR, and RED-CRBN proteins were diluted to a final concentration of 400 nM with PBS-T buffer (0.05% Tween 20), where the fluorescence signals satisfied the typical detection limit of the Monolith NT.115 instrument (NanoTemper Technologies). The binding affinity between Psa-AR and the RED-NHS-labeled AR protein was assessed. […] Then, 10 µL of RED-CRBN was added to each sample to achieve a final concentration of 400 nM. […] The data were analyzed by NanoTemper analysis software.

For `CC1(C)C(=O)N(c2ccc(C#N)c(C(F)(F)F)c2)C(=S)N1c1ccc(C(=O)NCCCC[C@H](NC(=O)CNc2cccc3c2C(=O)N(C2CCC(=O)NC2=O)C3=O)C(=O)N[C@@H](CS)C(=O)N[C@@H](CCC(N)=O)C(=O)N[C@@H](Cc2ccc(O)cc2)C(=O)N[C@@H](CC(N)=O)C(=O)N[C@@H](CCC(N)=O)C(=O)N[C@@H](Cc2ccc(O)cc2)C(=O)N[C@@H](Cc2ccc(O)cc2)C(=O)N[C@@H](Cc2ccc3ccccc3c2)C(=O)NCCCC[C@H](NC(=O)N[C@@H](CCC(=O)O)C(=O)O)C(=O)O)c(F)c1` (stereo partly shown) [Psa-AR] (H-[X1]K(X2)CQYNQYY[2Nal]-EuK), the Kd was 950 nM.
